c1ccc2c(c1)sc1ccccc12
solubility (mole fraction)
Conditions | in acetonitrile | in methanol
278.15 K | 0.00126 | 0.00454
283.15 K | 0.00163 | 0.00611
288.65 K | 0.00192 | 0.00845
293.15 K | 0.00242 | 0.0118
298.15 K | 0.0029 | 0.0152
303.15 K | 0.00331 | 0.0189
308.15 K | 0.00406 | 0.0241
313.15 K | 0.00478 | 0.0321
318.15 K | 0.0056 | 0.0402
323.15 K | 0.00668 | 0.0506
328.15 K | 0.00782 | 0.0639
333.15 K | 0.00917 | 0.0839
